In brackets after ≈: the same amount, converted by molar mass.

The test system of test [1] is RAW264.7. Nature of the test: Inhibition of LPS and IFN-gamma-induced nitric oxide production in mouse RAW264.7 cells after 16 hrs by Griess assay. As to conditions: RAW264.7, 16 h. It counts as functional, cell-based. (Nitrite, measured by Griess reagent, commonly stands in for NO production.)
Test [2] concerns RAW264.7. The test is described as follows: Inhibition of LPS and IFN-gamma-induced iNOS mRNA expression in mouse RAW264.7 cells for 8 hrs by RT-PCR analysis. It counts as functional, cell-based.

`CC(C)=CCC/C(C)=C/CC[C@]1(C)Oc2oc3cc(O)ccc3c(=O)c2[C@H]1C` gave an IC50 with RAW264.7 [1] of 4.1 µg/mL (≈ 10.7 µM). Turning to `CC(C)=CC(=O)C/C(C)=C/CC[C@]1(C)Oc2oc3cc(O)ccc3c(=O)c2[C@H]1C` (relative stereo) [FUKANEFUROCHROMONE A], the IC50 in the test on RAW264.7 [1] worked out at 9.8 µg/mL (≈ 24.7 µM). As to `CC(C)=CC(=O)C/C(C)=C/CC[C@@]1(C)Oc2oc3cc(O)ccc3c(=O)c2[C@H]1C` (relative stereo) [FUKANEFUROCHROMONE B], in the test with RAW264.7 [1], it took 8.9 µg/mL (≈ 22.4 µM) to reach half-maximal inhibition (IC50). Consider `CC(C)=CC(=O)/C=C(\C)CCC[C@]1(C)Oc2oc3cc(O)ccc3c(=O)c2[C@H]1C` (relative stereo) [FUKANEFUROCHROMONE C], for which, in the test with RAW264.7 [1], the IC50 is 11.5 µg/mL (≈ 29 µM). In the case of `CC(C)=CC(=O)/C=C(/C)CCC[C@]1(C)Oc2oc3cc(O)ccc3c(=O)c2[C@H]1C` (relative stereo) [FUKANEFUROCHROMONE D], in the test with RAW264.7 [1], the IC50 is 9.5 µg/mL (≈ 24 µM). In addition, the Activity result with RAW264.7 [2] is “Dose-dependent effect”.

Usually IC50 stands for the concentration needed to halve the response being measured.

The record behind these values is ChEMBL document CHEMBL1151277, “Sesquiterpene chromones from Ferula fukanensis and their nitric oxide production inhibitory effects” (J Nat Prod, 2005).
